Reference: patent US8278346B2, “Di-tin fused thiophene compounds and polymers and methods of making” (Corning Incorporated, priority 2010, dated 2012)

Assay: Solubility of FT4 compounds and polymer in organic solvents
Type: physicochemical
Conditions: for solubility in diethyl ether / solubility in hexane: room temperature
Description: Table 2 provides solubility properties and a solubility comparison of di-Br compound 7 and di-tin compound 8.

Compound: CCCCCCCCCCCCCCCCCc1[c]([Sn]([CH3])([CH3])[CH3])sc2c1sc1c3s[c]([Sn]([CH3])([CH3])[CH3])c(CCCCCCCCCCCCCCCCC)c3sc21 [compound 8]
- solubility in hexane, toluene, CH2Cl2, or mixtures thereof (compared to the corresponding di-bromo compound Br-DC17FT4-Br): excellent solubility
- solubility in diethyl ether: freely soluble
- solubility in hexane: freely soluble

Compound: CCCCCCCCCCCCCCCCCc1c(Br)sc2c1sc1c3sc(Br)c(CCCCCCCCCCCCCCCCC)c3sc21 [compound 7]
- solubility in direct comparisons to compound 8 (Table 2 solvents): essentially insoluble or only partially soluble
- solubility in diethyl ether: practically insoluble
- solubility in hexane: practically insoluble
